In patent publication US10154996B2, “Fungicidal agent” (priority 2014, dated 2018):
Values joined by “and” are separate entries in the source; they are usually repeats but may differ in a detail not shown here. Equal entries are not always repeated.

Assays:
[1] = test system: fungi of the Microsporum genus; test: Treatment of ringworm in cats; format: in vivo
Description: The preparation was used in treatment of ringworm in cats (two animals) caused by fungi of the Microsporum genus and characterized by appearance of small round bald patches on the face and ears of the animal. The preparation in the form of a 0.1% aqueous solution was applied onto the affected area three times a day for 6 days.

Solubility in water = format: physicochemical; settings: for solubility in water: maximum concentration in water
Description: (§1) However, this compound is very poorly soluble in aqueous media and in fats. The maximum value of solubility of the known drug in water is 0.002%, and for fats it is no more than 0.001% (octanol, which is a common model of lipids). […] Solutions with such concentration of the active substance are not sufficiently effective. At the same time the task of improvement of efficiency of use of a fungicidal agent in the form of solutions for use in human and veterinary medicine in the form of injections and inhalations and for treatment of a variety of materials and agricultural products is extremely urgent.

Candida fungi = test: Treatment of vulvovaginal candidiasis in patients; format: in vivo; settings: douchings morning and evening, 7 days
Experimental: Treatment of Vulvovaginal Candidiasis. In the experiment, the patients, who suffered vulvovaginal candidiasis caused by Candida fungi, were treated using the following aqueous solutions: 1) 0.1% solution of the presented drug (3 persons), 2) 0.002% solution of the prototype drug (3 people). The treatment in the form of dualfold (in the morning and in the evening) douchings was performed for 7 days. The treatment efficacy was assessed by the clinical presentation and the results mycological examination (inoculations on Saburo medium).

Aspergillus niger = test: Aspergillus pneumonia in mice, lung colonization after inhalation treatment; format: in vivo, white scrub mice
Experimental: The tests were conducted on white scrub mice (female, 6-8 weeks) received from “Rappolovo” breeding nursery (Leningrad reg.), which were kept under supervision for two weeks prior to the experiments on a standard diet in regulated vivarium conditions. Selection of the animals for the experiment group was conducted by the random selection method. For propagation of aspergillus pneumonia, the white scrub mice received a single intraperitoneal injection of a cyclophosphamide solution (150 mg/kg). After 3 days, the mice received a single intraperitoneal injection of a hydrocortisone solution (250 mg/kg). Twenty-four hours after administration of hydrocortisone the mice were intranasally infected with a suspension of Aspergillus niger (approximately 10^7 cells/ml) under ether narcosis. On day 5 after infection 5 animals from each group were taken to study lung colonization (euthanasia in the rodents was performed by overdose of ether). Lung tissues were used to prepare homogenates, in which the titer of Aspergillus fungi was determined. Observation over the remaining mice was carried out for 14 days after infection to record their mortality. The following groups of animals infected with Aspergillus niger were formed in the experiment. 1. Control groups: K1, K2, K3; the animals were exposed to an aerosol of isotonic sodium chloride solution. 2. Groups E1, E2, E3; the animals were administered a 0.1% aqueous solution of the presented preparation in the form of inhalations. 3. Groups P1, P2; the animals were administered an aqueous solution of the prototype fungicidal agent in the form of inhalations in concentrations of 0.002% and 0.001% respectively. The animals were placed into an aerosol chamber (12 liters) for 30 minutes, during which period 500 mL of air pass through their lungs. “OMRON U1” (Japan) ultrasonic nebulizer was used was used as an aerosol generator. To maintain a constant aerosol concentration in the chamber, a pneumatic vortex generator was used in the pulsed spraying mode ensuring a stable aerosol with particle size of 3 microns. The animals were placed in immobilization containers and exposed to the obtained aerosol for 30 minutes 1 time per day for 3 days starting from day 1 after the infection. Samples of homogenized lung tissue were used to prepare a number of successive dilutions followed by sowing on Saburo medium.

[2] = Solubility in fats / oil solutions; format: physicochemical
Description: as §1

Leveillula taurica = test: Treatment of powdery mildew on tuberous begonias; format: in vivo, Begonia tuberosa hybridum; settings: spray of 0.1% aqueous solution once a day for 7 days
Experimental: The study was conducted on tuberous begonias (Begonia tuberosa hybridum), infected with powdery mildew. Powdery mildew affects many plants, including trees and shrubs. Powdery mildew affects chrysanthemums, begonias, roses; at that a white, sometimes darkening, plaque appears green parts of the plant. The disease is transmitted by airborne spores. The tested plants were infected with spores of a fungus (Leveillula taurica) when exposed up to appearance of a white plaque on the leaves. Three leaves on each plant were infected. After appearance of the plaque the plants in control group (three plants) were isolated from the three plants treated with a spray of a 0.1% aqueous solution of the presented preparation. The treatment was performed once a day for 7 days. After the treatment was complete, observation over the plants was continued for another three weeks.

[3] = test system: Aspergillus niger and Penicillium notatum; test: Protection of construction wood against fungal attacks; settings: 5 days at 30° C.; for growth of test organisms on the boards: humid environment
Experimental: To test the preparation boards by the dimensions of 20×40×2 cm were used. The boards were divided into three groups. Group 1: the boards were impregnated with a 0.3% aqueous solution of the presented formulation. The impregnation was carried out by twofold application of the solution by means of a diffuser with an intermediate drying. Group 2: the boards were impregnated with a 0.02% aqueous solution of the prototype preparation. The impregnation was carried out by twofold application of the solution by means of a diffuser with an intermediate drying. Group 3 (control): the boards were impregnated with distilled water. The impregnation was carried out by twofold application of water by means of a diffuser with an intermediate drying. The boards dried after treatment were soaked in water for two hours, after which they were coated with Aspergillus niger and Penicillium notatum fungi cultures at opposite ends of one side. The boards were placed in thermostats for 5 days at the temperature of 30° C. in a humid environment. After incubation, the boards were visually inspected and inoculations were made from their surface onto a nutrient medium (Sabouraud).

[4] = test system: Pityrosporum orbiculare-Malassezia furfur; test: Treatment of scaly skin disease (Tinea versicolor, Pityriasis versicolor) in patients; format: in vivo; settings: cotton swab 2 times a day, 7 days
Experimental: Treatment of a Fungal Disease of the Skin—Scaly Skin Disease (Tinea Versicolor, Pityriasis versicolor). The disease is caused by a fungus called Pityrosporum orbiculare-Malassezia furfur (mycelial form). The following was prepared for the study: A 0.1% oil (olive oil) solution of the presented preparation and a 0.002% aqueous solution of the prototype substance. As a reference olive oil was used. The study included three groups of patients. Each group included 2 patients with this pathology. Treatment duration was 7 days. The drug was applied with a cotton swab 2 times a day—in the morning and in the evening.

[5] = 0.1% aqueous solution on affected area three times a day for 6 days
[6] = boards impregnated with 0.3% aqueous solution
[7] = lung homogenate day 5, 0.001% aqueous solution, inhalation, group P2
[8] = lung homogenate day 5, 0.002% aqueous solution, inhalation, group P1
[9] = boards impregnated with 0.02% aqueous solution

N#CSc1cc(C=Nc2c[nH]c(=O)nc2O)c(O)c(SC#N)c1 [presented preparation]
inflammatory manifestations [1, 5]: disappearance of inflammatory manifestations was reported
size of affected areas [1, 5]: the affected areas ceased to increase
growth from inoculations of swabs from the affected area after treatment ([1]; 0.1% aqueous solution three times a day for 6 days, nutrient media): did not lead to growth on nutrient media
solubility in water (Solubility in water): 0.3-0.4%
increase in solubility versus prototype (Solubility in water; water and oil solutions): more than a hundred-fold
Complete cure (Candida fungi; 0.1% aqueous solution): Reached
Mycological cure (reduction in the number of fungi inoculated on a solid medium) (Candida fungi; 0.1% aqueous solution): A tenfold reduction in the number
Number of colonies (in different dilutions) 10^−2 (Aspergillus niger; lung homogenate day 5, Saburo medium, 0.1% aqueous solution, inhalation 30 min once daily for 3 days, groups E1-E3): 2 and 4
solubility for oil solutions ([2]; oil solutions): 0.25-0.3%
growth of fungi after flushing off the leaf and inoculation on a nutrient medium (Leveillula taurica): no growth of the fungi was observed
increase or spread of the fungus on the plant (Leveillula taurica; observation three more weeks): no increase or spread of the fungus to other parts of the plant occur
growth from control inoculations on nutrient medium (Sabouraud) [3, 6]: did not lead to a growth on the nutrient medium
growth of test organisms on the boards [3, 6]: No growth of the test organisms was registered
Complete cure ([4]; 0.1% oil (olive oil) solution): Reached

2.4-dioxo-5-(2-hydroxy-3.5-dichlorobenzylidene)amino-1.3-pyrimidine [Prototype, reference compound]
solubility in water (Solubility in water): 0.002%
Complete cure (Candida fungi; 0.002% aqueous solution): Not reached
Mycological cure (reduction in the number of fungi inoculated on a solid medium) (Candida fungi; 0.002% aqueous solution): 1.7-fold reduction in the number of
Number of colonies (in different dilutions) 10^−2 (Aspergillus niger; [7]): 37
Number of colonies (in different dilutions) 10^−4 (Aspergillus niger; [7]): 2
Number of colonies (in different dilutions) 10^−2 (Aspergillus niger; [8]): 26
Number of colonies (in different dilutions) 10^−4 (Aspergillus niger; [8]): 1
solubility in fats ([2]; octanol as common model of lipids): no more than 0.001%
growth from inoculations on nutrient medium (Sabouraud) [3, 9]: later spread in the nutrient medium
growth of test organisms on the boards [3, 9]: a growth of the inoculated test bacteria can be detected
Complete cure ([4]; 0.002% aqueous solution): Absent
